Molecules are shown by their SMILES.

The assay addresses T1, human Bradykinin B1 receptor (Homo sapiens, UniProt P46663).
T1 construct: host or cells: CHO-K1
T1 sequence (P46663 1-353): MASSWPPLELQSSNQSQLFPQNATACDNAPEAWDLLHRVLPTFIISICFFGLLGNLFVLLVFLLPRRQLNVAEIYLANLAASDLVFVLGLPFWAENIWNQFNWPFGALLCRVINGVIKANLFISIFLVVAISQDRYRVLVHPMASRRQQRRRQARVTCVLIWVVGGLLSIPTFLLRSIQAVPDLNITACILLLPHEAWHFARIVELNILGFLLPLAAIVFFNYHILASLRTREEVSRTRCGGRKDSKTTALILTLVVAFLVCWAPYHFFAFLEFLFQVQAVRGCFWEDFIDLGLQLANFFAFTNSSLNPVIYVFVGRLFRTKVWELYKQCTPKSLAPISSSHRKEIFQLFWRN
Nature of the assay: Calcium flux Assay (FLIPR) with cells expressing human Bradykinin B1 receptor (hB1). The format is cell-based. The conditions noted are these: absence of 0.1% BSA in assay buffer; CHO-K1 cell line expressing human B1 receptor; agonist Lys-(Des-Arg)-Bradykinin; read-out: hB1 free IC50. The protocol: The potency to inhibit the Bradykinin B1 receptor was determined for the compound examples of this invention in a cell-based fluorescent calcium-mobilisation assay. The assay measures the ability of compound examples to inhibit Bradykinin B1 receptor agonist-induced increase of intracellular free Ca^2+ in the cell line expressing Bradykinin B1 receptor. Specifically, calcium indicator-loaded cells are pre-incubated in the absence or presence of different concentrations of compound examples followed by the stimulation with a selective Bradykinin B1 receptor agonist peptide. The change of the intracellular Ca^2+ concentration is monitored with a fluorescent plate reader FLIPR^TETRA®
Calcium flux Assays (FLIPR) with cells expressing human Bradykinin B1 receptor (hB1) Calcium flux Assay (FLIPR) with recombinant cells for Bradykinin B1 receptor antagonist, either in the presence (hB1 IC50) or absence (hB1 free IC50) of 0.1% Bovine Serum Albumin (BSA) in assay buffer.
CHO—K1 cell line expressing human B1 receptor was purchased from Euroscreen (Gosselies, Belgium, with reference name hB1-D1). The cells were grown in Nutrient Mixture Ham's F12 (Sigma) containing 10% Foetal bovine serum (Sigma) and 400 μg/mL G418 (Sigma), 5 μg/mL puromycin (Sigma).
For the calcium flux assay, 80% confluent cells were detached from the culture vessels with Versene (Gibco), and seeded into 384-well plates (Cell binding Surface; Corning, N.Y.; #3683) at a density of 15,000 cells per well. Cells were seeded in a volume of 50 μL in medium without antibiotics and incubated overnight in a humidified atmosphere with 5% CO2 at 37° C. […] The calcium indicator loaded cells were incubated at 37° C. for 2 hrs. Extracellular dye was then removed and each well was filled with 45 μL of assay buffer. Cell plates were kept in dark until used. Example compounds were assayed at 8 concentrations in triplicate. Serial 10-fold dilutions in 100% DMSO were made at a 100-times higher concentration than the final concentration, and then diluted 1:10 in assay buffer. 5 μL of each diluted compound was added to the well of cell plates (yielding final concentration with 1% DMSO), and incubated for 30 min at 28° C. before the addition of B1 receptor agonist on the FLIPR instrument.
Agonist plates contained the agonist Lys-(Des-Arg)-Bradykinin (Bachem, Brackley) at 3.5×EC90 in assay buffer with 1% DMSO. The addition of agonist 20 μl per well to the assay plate was carried out on the FLIPR instrument while continuously monitoring Ca^2+-dependent fluorescence at 538 nm. A peptide antagonist Lys-(Des-Arg-Leu)-Bradykinin (Bachem, Brackley) at 20 μM was used to determine the full inhibition as control.
Peak fluorescence was used to determine the response to agonist obtained at each concentration of example compound by the following equation:
% Response=100*(RFU(example compound)−RFU(control))/(RFU(DMSO)−RFU(control)) • RFU means relative fluorescence units. • Control means full inhibition by the peptide antagonist Lys-(Des-Arg-Leu)-Bradykinin at 20
The response values were plotted against the logarithm of the example compound concentrations. The example compounds were tested in triplicates per plate and mean values were plotted in Excel XLfit to determine IC50 values, percentage of maximal inhibition and the Hill slopes.
IC50 values of example compounds in Calcium flux Assay (FLIPR) as shown in table 1 were determined according to the protocol described above in the absence of 0.1% BSA in assay buffer.
Take `Cc1cc(NC(=O)C2(c3ccc(C(F)(F)F)cc3F)CC2)cc(-c2nnn[nH]2)c1C(=O)O[C@H]1CCOC1` [Example 65, (3S)-tetrahydrofuran-3-yl 4-[({1-[2-fluoro-4-(trifluoromethyl)phenyl]cyclopropyl}carbonyl)amino]-2-methyl-6-(1H-tetrazol-5-yl)benzoate]: the concentration for half-maximal inhibition (IC50) was found to be 62 nM.
For the compound `O=C(N[C@H]1CCOC1)c1ccc(NC(=O)C2(c3ccc(C(F)(F)F)cc3F)CC2)cc1-c1nnn[nH]1` [Example 54, 4-[({1-[2-Fluoro-4-(trifluoromethyl)phenyl]cyclopropyl}carbonyl)amino]-N-[(3S)-tetrahydrofuran-3-yl]-2-(1H-tetrazol-5-yl)benzamide], the half-inhibitory concentration (IC50) came out at 1530 nM.
Turning to `CN1CCC(OC(=O)c2ccc(NC(=O)C3(c4ccc(C(F)(F)F)cc4F)CC3)cc2-c2nnn[nH]2)CC1` [Example 23, 1-Methylpiperidin-4-yl 4-[({1-[2-fluoro-4-(trifluoromethyl)phenyl]cyclopropyl}carbonyl)amino]-2-(1H-tetrazol-5-yl)benzoate], the IC50 was 319 nM.
For `CC[C@H](C)OC(=O)c1ccc(NC(=O)C2(c3ccc(OC(F)(F)F)cc3F)CC2)cc1-c1nnn[nH]1` [Example 27, (2S)-Butan-2-yl 4-[({1-[2-fluoro-4-(trifluoromethoxy)phenyl]cyclopropyl}carbonyl)amino]-2-(1H-tetrazol-5-yl)benzoate] the value was 2 nM; for `O=C(OC1CCCC1)c1ccc(NC(=O)C2(c3ccc(OC(F)(F)F)cc3F)CC2)cc1-c1nnn[nH]1` [Example 7, Cyclopentyl 4-[({1-[2-fluoro-4-(trifluoromethoxy)phenyl]cyclopropyl}carbonyl)amino]-2-(1H-tetrazol-5-yl)benzoate], 5 nM.
For the compound `O=C(OC1CCCC1)c1ccc(NC(=O)C2(c3ccc(F)c(F)c3)CC2)cc1-c1nnn[nH]1` [Example 4, Cyclopentyl 4-({[1-(3,4-difluorophenyl)cyclopropyl]carbonyl}amino)-2-(1H-tetrazol-5-yl)benzoate], the IC50 came to 59 nM.
For `COC(C)(C)CNC(=O)c1ccc(NC(=O)C2(c3ccc(C(F)(F)F)cc3F)CC2)cc1-c1nnn[nH]1` [Example 52, 4-[({1-[2-Fluoro-4-(trifluoromethyl)phenyl]cyclopropyl}carbonyl)amino]-N-(2-methoxy-2-methylpropyl)-2-(1H-tetrazol-5-yl)benzamide], the IC50 stood at 143 nM.
For `COC1CCN(C(=O)c2ccc(NC(=O)C3(c4ccc(C(F)(F)F)cc4F)CC3)cc2-c2nnn[nH]2)CC1` [Example 36, 1-[2-Fluoro-4-(trifluoromethyl)phenyl]-N-{4-[(4-methoxypiperidin-1-yl)carbonyl]-3-(1H-tetrazol-5-yl)phenyl}cyclopropanecarboxamide] the value was 523 nM.
For `Cc1ccc(NC(=O)c2ccc(NC(=O)C3(c4ccc(C(F)(F)F)cc4F)CC3)cc2-c2nnn[nH]2)nc1` [Example 56, 4-[({1-[2-Fluoro-4-(trifluoromethyl)phenyl]cyclopropyl}carbonyl)amino]-N-(5-methylpyridin-2-yl)-2-(1H-tetrazol-5-yl)benzamide], the IC50 amounted to 50 nM.
For `CN(C(=O)c1ccc(NC(=O)C2(c3cccc(Cl)c3)CC2)cc1-c1nnn[nH]1)C1CCOCC1` [Example 46, 4-({[1-(3-Chlorophenyl)cyclopropyl]carbonyl}amino)-N-methyl-N-(tetrahydro-2H-pyran-4-yl)-2-(1H-tetrazol-5-yl)benzamide] the value was 3300 nM; for `O=C(NC1CCOCC1)c1ccc(NC(=O)C2(c3ccc(C(F)(F)F)cc3F)CC2)cc1-c1nnn[nH]1` [Example 45, 4-[({1-[2-Fluoro-4-(trifluoromethyl)phenyl]cyclopropyl}carbonyl)amino]-N-(tetrahydro-2H-pyran-4-yl)-2-(1H-tetrazol-5-yl)benzamide], 133 nM; for `COC[C@H](C)NC(=O)c1ccc(NC(=O)C2(c3ccc(C(F)(F)F)cc3F)CC2)cc1-c1nnn[nH]1` [Example 51, 4-[({1-[2-Fluoro-4-(trifluoromethyl)phenyl]cyclopropyl}carbonyl)amino]-N-[(2S)-1-methoxypropan-2-yl]-2-(1H-tetrazol-5-yl)benzamide], 409 nM.
In the case of `CCC(C)OC(=O)c1ccc(NC(=O)C2(c3ccc(OC(F)(F)F)cc3F)CC2)cc1-c1nnn[nH]1` (racemic) [Example 11, sec-Butyl 4-[({1-[2-fluoro-4-(trifluoromethoxy)phenyl]cyclopropyl}carbonyl)amino]-2-(1H-tetrazol-5-yl)benzoate], the IC50 was 3 nM.
Then `CCOC(=O)c1c(C)cc(NC(=O)C2(c3ccc(C(F)(F)F)cc3F)CC2)cc1-c1nnn[nH]1` [Example 60, Ethyl 4-[({1-[2-fluoro-4-(trifluoromethyl)phenyl]cyclopropyl}carbonyl)amino]-2-methyl-6-(1H-tetrazol-5-yl)benzoate], with 26 nM; and `O=C(O[C@H]1CCOC1)c1c(F)cc(NC(=O)C2(c3ccc(C(F)(F)F)cc3F)CC2)cc1-c1nnn[nH]1` [Example 62, (3S)-tetrahydrofuran-3-yl 2-fluoro-4-[({1-[2-fluoro-4-(trifluoromethyl)phenyl]cyclopropyl}carbonyl)amino]-6-(1H-tetrazol-5-yl)benzoate], with 2 nM.
In the case of `COCCOC(=O)c1ccc(NC(=O)C2(c3ccc(C(F)(F)F)cc3F)CC2)cc1-c1nnn[nH]1` [Example 17, 2-Methoxyethyl 4-[({1-[2-fluoro-4-(trifluoromethyl)phenyl]cyclopropyl}-carbonyl)amino]-2-(1H-tetrazol-5-yl)benzoate], the IC50 amounted to 17 nM.
For `COC1CCCN(C(=O)c2ccc(NC(=O)C3(c4ccc(C(F)(F)F)cc4F)CC3)cc2-c2nnn[nH]2)C1` (racemic) [Example 35, 1-[2-Fluoro-4-(trifluoromethyl)phenyl]-N-{4-[(3-methoxypiperidin-1-yl)carbonyl]-3-(1H-tetrazol-5-yl)phenyl}cyclopropanecarboxamide] the value was 341 nM.
As for `CCC(C)OC(=O)c1ccc(NC(=O)C2(c3cccc(Cl)c3)CC2)cc1-c1nnn[nH]1` (racemic) [Example 3, sec-Butyl 4-({[1-(3-chlorophenyl)cyclopropyl]carbonyl}amino)-2-(1H-tetrazol-5-yl)benzoate], the IC50 came to 10 nM.
For `CN(C(=O)c1ccc(NC(=O)C2(c3ccc(C(F)(F)F)cc3F)CC2)cc1-c1nnn[nH]1)C1CCCC1` [Example 41, N-cyclopentyl-4-[({1-[2-fluoro-4-(trifluoromethyl)phenyl]cyclopropyl}carbonyl)amino]-N-methyl-2-(1H-tetrazol-5-yl)benzamide] the value was 205 nM; for `CN(C(=O)c1ccc(NC(=O)C2(c3ccc(C(F)(F)F)cc3F)CC2)cc1-c1nnn[nH]1)C1CCOCC1` [Example 47, 4-[({1-[2-Fluoro-4-(trifluoromethyl)phenyl]cyclopropyl}carbonyl)amino]-N-methyl-N-(tetrahydro-2H-pyran-4-yl)-2-(1H-tetrazol-5-yl)benzamide], 445 nM; for `O=C(OC1CCCC1)c1c(F)cc(NC(=O)C2(c3ccc(C(F)(F)F)cc3F)CC2)cc1-c1nnn[nH]1` [Example 61, Cyclopentyl 2-fluoro-4-[({1-[2-fluoro-4-(trifluoromethyl)phenyl]cyclopropyl}-carbonyl)amino]-6-(1H-tetrazol-5-yl)benzoate], 2 nM.

The record behind these values is patent US20190177284A1, “TETRAZOLYL-CONTAINING CYCLOPROPANECARBOXAMIDES” (Bayer Pharma Aktiengesellschaft, priority 2017, published 2019).
